Results reported in ChEMBL document CHEMBL5532698, “2,3-Dihydroquinazolin-4(1H)-ones and quinazolin-4(3H)-ones as broad-spectrum cytotoxic agents and their impact on tubulin polymerisation” (RSC Med Chem, 2024).

Assays:
MIA PaCa-2 [1] = experiment: Antiproliferative activity against human MIA PaCa-2 cells assessed as cell growth inhibition incubated for 72 hrs by MTT assay; format: functional
MCF7 [2] = experiment: Antiproliferative activity against human MCF7 cells assessed as cell growth inhibition incubated for 72 hrs by MTT assay; format: functional
[3] = Antiproliferative activity against human SJG2 cells assessed as cell growth inhibition at 25 uM incubated for 72 hrs by MTT assay relative to control; format: functional; settings: SJ-G2
A2780 [4] = experiment: Antiproliferative activity against human A2780 cells assessed as cell growth inhibition at 25 uM incubated for 72 hrs by MTT assay relative to control; format: functional
NCI-H460 [5] = experiment: Antiproliferative activity against human NCI-H460 cells assessed as cell growth inhibition incubated for 72 hrs by MTT assay; format: functional
[6] = Cytotoxicity against human MCF-10A cells assessed as cell growth inhibition at 25 uM incubated for 72 hrs by MTT assay relative to control; format: toxicity, cell-based
[7] = Cytotoxicity against human MCF-10A cells assessed as cell growth inhibition incubated for 72 hrs by MTT assay; format: toxicity, cell-based
NCI-H460 [8] = experiment: Antiproliferative activity against human NCI-H460 cells assessed as cell growth inhibition at 25 uM incubated for 72 hrs by MTT assay relative to control; format: functional
[9] = Antiproliferative activity against human SJG2 cells assessed as cell growth inhibition incubated for 72 hrs by MTT assay; format: functional; settings: SJ-G2
A-431 [10] = experiment: Antiproliferative activity against human A-431 cells assessed as cell growth inhibition incubated for 72 hrs by MTT assay; format: functional
DU-145 [11] = experiment: Antiproliferative activity against human DU-145 cells assessed as cell growth inhibition at 25 uM incubated for 72 hrs by MTT assay relative to control; format: functional
MCF7 [12] = experiment: Antiproliferative activity against human MCF7 cells assessed as cell growth inhibition at 25 uM incubated for 72 hrs by MTT assay relative to control; format: functional
A2780 [13] = experiment: Antiproliferative activity against human A2780 cells assessed as cell growth inhibition incubated for 72 hrs by MTT assay; format: functional
BE(2)-C [14] = experiment: Antiproliferative activity against human BE2C cells assessed as cell growth inhibition incubated for 72 hrs by MTT assay; format: functional
HT-29 [15] = experiment: Antiproliferative activity against human HT-29 cells assessed as cell growth inhibition incubated for 72 hrs by MTT assay; format: functional
HT-29 [16] = experiment: Antiproliferative activity against human HT-29 cells assessed as cell growth inhibition at 25 uM incubated for 72 hrs by MTT assay relative to control; format: functional
BE(2)-C [17] = experiment: Antiproliferative activity against human BE2C cells assessed as cell growth inhibition at 25 uM incubated for 72 hrs by MTT assay relative to control; format: functional
U-87 MG [18] = experiment: Antiproliferative activity against human U87 cells assessed as cell growth inhibition incubated for 72 hrs by MTT assay; format: functional, U-87MG ATCC
A-431 [19] = experiment: Antiproliferative activity against human A-431 cells assessed as cell growth inhibition at 25 uM incubated for 72 hrs by MTT assay relative to control; format: functional
U-87 MG [20] = experiment: Antiproliferative activity against human U87 cells assessed as cell growth inhibition at 25 uM incubated for 72 hrs by MTT assay relative to control; format: functional, U-87MG ATCC
MIA PaCa-2 [21] = experiment: Antiproliferative activity against human MIA PaCa-2 cells assessed as cell growth inhibition at 25 uM incubated for 72 hrs by MTT assay relative to control; format: functional
DU-145 [22] = experiment: Antiproliferative activity against human DU-145 cells assessed as cell growth inhibition incubated for 72 hrs by MTT assay; format: functional

Row | Compound | GI50 (MIA PaCa-2 [1]) | GI50 (MCF7 [2]) | inhibition at 25 µM [3] | inhibition at 25 µM (A2780 [4]) | GI50 (NCI-H460 [5]) | inhibition at 72 h, 25 µM [6] | GI50 at 72 h [7] | inhibition at 25 µM (NCI-H460 [8]) | GI50 [9] | GI50 (A-431 [10]) | inhibition at 25 µM (DU-145 [11]) | inhibition at 25 µM (MCF7 [12]) | GI50 (A2780 [13]) | GI50 (BE(2)-C [14]) | GI50 (HT-29 [15]) | inhibition at 25 µM (HT-29 [16]) | inhibition at 25 µM (BE(2)-C [17]) | GI50 (U-87 MG [18]) | inhibition at 25 µM (A-431 [19]) | inhibition at 25 µM (U-87 MG [20]) | also measured
1 | O=C1NC(c2cccc([N+](=O)[O-])c2)Nc2ccccc21 (stereo unspecified) | 20 µM | 6.7 µM | 61% | 69% | 24 µM | 54% | 21 µM | 59% | 22 µM | 20 µM | 33% | > 100% | 18 µM | 19 µM | 17 µM | 78% | 58% | > 50 µM | 67% | 20% | inhibition at 25 µM (MIA PaCa-2 [21]): 56%; GI50 (DU-145 [22]): 45 µM
2 | O=C1NC(c2ccc3ccccc3c2)Nc2ccccc21 (stereo unspecified) | 2.8 µM | 2.8 µM | > 100% | > 100% | 2.9 µM | 99% | 3.5 µM | 100% | 2.8 µM | 3 µM | > 100% | 135% | 2.9 µM | 2.9 µM | 2.7 µM | > 100% | 98% | 5 µM | > 100% | 94% | inhibition at 25 µM (MIA PaCa-2 [21]): > 100%; GI50 (DU-145 [22]): 4.2 µM
3 | O=C1NC(c2cc3ccccc3o2)Nc2ccccc21 (stereo unspecified) | 3.5 µM | 3.3 µM | ≥ 71% | ≥ 57% | 3.1 µM | 76% | 3.9 µM | 77% | 3 µM | 2.7 µM | ≥ 28% | 63% | 2.9 µM | 3.1 µM | 2.6 µM | ≥ 92% | 66% | 4.1 µM | ≥ 75% | 47% | inhibition at 25 µM (MIA PaCa-2 [21]): 76%; GI50 (DU-145 [22]): 4.8 µM
4 | Cc1ccc(C2NC(=O)c3ccccc3N2)cc1 (stereo unspecified) | 3.4 µM | 4 µM | > 100% | > 100% | 3.2 µM | 100% | 3.1 µM | > 100% | 2.9 µM | 2.3 µM | > 100% | 90% | 2.3 µM | 1.9 µM | 1.6 µM | > 100% | 87% | 2.6 µM | > 100% | > 100% | inhibition at 25 µM (MIA PaCa-2 [21]): 95%; GI50 (DU-145 [22]): 3.1 µM
5 | O=C1NC(c2ccc(-c3ccccc3)cc2)Nc2ccccc21 (stereo unspecified) | 2.3 µM | 1.6 µM | > 100% | > 100% | 2.8 µM | 98% | 2.3 µM | > 100% | 2.6 µM | 2.4 µM | > 100% | > 100% | 3.8 µM | 2 µM | 2.3 µM | > 100% | 92% | 2.2 µM | > 100% | > 100% | inhibition at 25 µM (MIA PaCa-2 [21]): > 100%; GI50 (DU-145 [22]): 2.3 µM
6 | O=C1NC(c2cccc(O)c2)Nc2ccccc21 (stereo unspecified) | 15 µM | 13 µM | > 100% | 95% | 14 µM | 92% | 14 µM | 94% | 12 µM | 3.7 µM | 72% | 66% | 3 µM | 6.4 µM | 6.3 µM | > 100% | 97% | 19 µM | > 100% | 65% | inhibition at 25 µM (MIA PaCa-2 [21]): 86%; GI50 (DU-145 [22]): 16 µM
7 | O=C1NC(c2cccc(C(F)(F)F)c2)Nc2ccccc21 (stereo unspecified) | 4.4 µM | 5.6 µM | > 100% | 100% | 3.2 µM | > 100% | 3.1 µM | 100% | 3.3 µM | 2.7 µM | > 100% | 83% | 2.9 µM | 3.1 µM | 2.9 µM | > 100% | > 100% | 3.2 µM | > 100% | > 100% | inhibition at 25 µM (MIA PaCa-2 [21]): 95%; GI50 (DU-145 [22]): 3 µM
8 | O=C1NC(c2cccs2)Nc2ccccc21 (stereo unspecified) | 18 µM | 11 µM | 60% | 98% | 15 µM | 84% | 15 µM | 88% | 23 µM | 7.4 µM | 57% | 91% | 4.7 µM | 9.3 µM | 7.6 µM | 90% | 91% | 23 µM | > 100% | 56% | inhibition at 25 µM (MIA PaCa-2 [21]): 74%; GI50 (DU-145 [22]): 25 µM
